Experimental data published in ChEMBL document CHEMBL5223117, “Synthesis and biological evaluation of novel N, N'-diarylurea derivatives as potent antibacterial agents against MRSA” (Bioorg Med Chem Lett, 2022).
Converted amounts (≈) assume the structure as drawn. The source made the active and inactive calls. No cut-off for these calls is given here.

Legend:
Type in all cases: functional
Staphylococcus aureus [1] = assay: Antibacterial activity against methicillin resistant Staphylococcus aureus 20-11
Staphylococcus aureus [2] = assay: Antibacterial activity against methicillin sensitive Staphylococcus aureus ATCC 29213
Staphylococcus aureus [3] = assay: Antibacterial activity against vancomycin intermediate and methicillin resistant Staphylococcus aureus ATCC 700699
[4] = tested on: Staphylococcus epidermidis; assay: Antibacterial activity against methicillin sensitive Staphylococcus epidermidis 17-13
Staphylococcus aureus [5] = assay: Antibacterial activity against vancomycin intermediate and methicillin resistant Staphylococcus aureus ATCC 700698
[6] = tested on: Staphylococcus epidermidis; assay: Antibacterial activity against methicillin sensitive Staphylococcus epidermidis ATCC 12228
[7] = tested on: Staphylococcus epidermidis; assay: Antibacterial activity against methicillin resistant Staphylococcus epidermidis 19-1
[8] = tested on: Staphylococcus epidermidis; assay: Antibacterial activity against methicillin resistant Staphylococcus epidermidis 19-2
Staphylococcus aureus [9] = assay: Antibacterial activity against methicillin sensitive Staphylococcus aureus 15
Staphylococcus aureus [10] = assay: Antibacterial activity against methicillin resistant Staphylococcus aureus ATCC 43300
Staphylococcus aureus [11] = assay: Antibacterial activity against methicillin resistant Staphylococcus aureus 18-2
Enterococcus faecium [12] = assay: Antibacterial activity against Vanomycin-resistant Enterococcus faecium 15-6
Enterococcus faecalis [13] = assay: Antibacterial activity against Vanomycin-resistant Enterococcus faecalis ATCC 51299
Enterococcus faecium [14] = assay: Antibacterial activity against Vanomycin-resistant Enterococcus faecium ATCC 51559
Enterococcus faecalis [15] = assay: Antibacterial activity against Vanomycin-resistant Enterococcus faecalis ATCC 51575
Staphylococcus aureus [16] = assay: Antibacterial activity against methicillin sensitive Staphylococcus aureus ATCC 33591
Enterococcus faecium [17] = assay: Antibacterial activity against Vanomycin-resistant Enterococcus faecium ATCC 700221
Staphylococcus aureus [18] = assay: Antibacterial activity against methicillin sensitive Staphylococcus aureus 20-12

Row | SMILES | MIC (Staphylococcus aureus [1]) | MIC (Staphylococcus aureus [2]) | MIC (Staphylococcus aureus [3]) | MIC [4] | MIC (Staphylococcus aureus [5]) | MIC [6] | MIC [7] | MIC [8] | MIC (Staphylococcus aureus [9]) | MIC (Staphylococcus aureus [10]) | MIC (Staphylococcus aureus [11]) | MIC (Enterococcus faecium [12]) | MIC (Enterococcus faecalis [13]) | MIC (Enterococcus faecium [14]) | MIC (Enterococcus faecalis [15]) | MIC (Staphylococcus aureus [16]) | MIC (Enterococcus faecium [17]) | MIC (Staphylococcus aureus [18])
1 | COc1ccc(NC(=O)Nc2ccc(Cl)c(C(F)(F)F)c2)cc1 | inactive | inactive | inactive | inactive | inactive | inactive | inactive | inactive | inactive | inactive | – | – | – | – | – | – | – | –
2 | CNC(=O)c1cc(Oc2ccc(NC(=O)Nc3cccc(C(F)(F)F)c3)cc2)ccn1 | inactive | inactive | inactive | inactive | inactive | 149 µM (≈ 64 µg/mL) | 149 µM (≈ 64 µg/mL) | inactive | 149 µM (≈ 64 µg/mL) | inactive | – | – | – | – | – | – | – | –
3 | O=C(Nc1ccc(Cl)c(C(F)(F)F)c1)Nc1cc(Cl)c(F)cc1F | 2.6 µM (≈ 1 µg/mL) | 2.6 µM (≈ 1 µg/mL) | 2.6 µM (≈ 1 µg/mL) | 2.6 µM (≈ 1 µg/mL) | 2.6 µM (≈ 1 µg/mL) | 2.6 µM (≈ 1 µg/mL) | 2.6 µM (≈ 1 µg/mL) | 1.3 µM (≈ 0.501 µg/mL) | 1.3 µM (≈ 0.501 µg/mL) | 2.6 µM (≈ 1 µg/mL) | 2.6 µM (≈ 1 µg/mL) | 5.19 µM (≈ 2 µg/mL) | 20.8 µM (≈ 8 µg/mL) | 5.19 µM (≈ 2 µg/mL) | 10.4 µM (≈ 4 µg/mL) | 1.3 µM (≈ 0.501 µg/mL) | 5.19 µM (≈ 2 µg/mL) | 2.6 µM (≈ 1 µg/mL)
4 | O=C1N(c2ccc(O)cc2)CCN1c1ccc(Cl)c(C(F)(F)F)c1 | inactive | inactive | inactive | inactive | inactive | inactive | inactive | inactive | inactive | inactive | – | – | – | – | – | – | – | –
5 | CNC(=O)c1cc(Oc2ccc(NC(=O)Nc3cc(C(F)(F)F)ccc3OC)cc2)ccn1 | inactive | inactive | inactive | inactive | inactive | inactive | inactive | inactive | inactive | inactive | – | – | – | – | – | – | – | –
6 | O=C(Nc1ccc(OC(F)F)cc1)Nc1ccc(Cl)c(C(F)(F)F)c1 | 0.66 µM (≈ 0.251 µg/mL) | 10.5 µM (≈ 4 µg/mL) | 0.66 µM (≈ 0.251 µg/mL) | 2.63 µM (≈ 1 µg/mL) | 1.31 µM (≈ 0.499 µg/mL) | 10.5 µM (≈ 4 µg/mL) | 5.25 µM (≈ 2 µg/mL) | 10.5 µM (≈ 4 µg/mL) | 0.66 µM (≈ 0.251 µg/mL) | 10.5 µM (≈ 4 µg/mL) | 5.25 µM (≈ 2 µg/mL) | 21 µM (≈ 8 µg/mL) | inactive | 21 µM (≈ 8 µg/mL) | inactive | 10.5 µM (≈ 4 µg/mL) | 21 µM (≈ 8 µg/mL) | 10.5 µM (≈ 4 µg/mL)
7 | CNC(=O)c1cc(Oc2ccc(N3CCN(c4ccc(Cl)c(C(F)(F)F)c4)C3=O)cc2)ccn1 | inactive | inactive | inactive | inactive | inactive | inactive | inactive | inactive | inactive | inactive | – | – | – | – | – | – | – | –
8 | O=C(Nc1ccc(Cl)c(C(F)(F)F)c1)Nc1cc(F)c(F)cc1Cl | 1.3 µM (≈ 0.501 µg/mL) | 1.3 µM (≈ 0.501 µg/mL) | 0.65 µM (≈ 0.25 µg/mL) | 0.65 µM (≈ 0.25 µg/mL) | 1.3 µM (≈ 0.501 µg/mL) | 1.3 µM (≈ 0.501 µg/mL) | 1.3 µM (≈ 0.501 µg/mL) | 0.65 µM (≈ 0.25 µg/mL) | 1.3 µM (≈ 0.501 µg/mL) | 1.3 µM (≈ 0.501 µg/mL) | 1.3 µM (≈ 0.501 µg/mL) | 2.6 µM (≈ 1 µg/mL) | 10.4 µM (≈ 4 µg/mL) | 5.19 µM (≈ 2 µg/mL) | 10.4 µM (≈ 4 µg/mL) | 0.65 µM (≈ 0.25 µg/mL) | 5.19 µM (≈ 2 µg/mL) | 1.3 µM (≈ 0.501 µg/mL)
9 | O=C(Nc1ccc(Cl)c(C(F)(F)F)c1)Nc1cc(Cl)ccc1F | 2.72 µM (≈ 0.999 µg/mL) | 2.72 µM (≈ 0.999 µg/mL) | 1.36 µM (≈ 0.499 µg/mL) | 2.72 µM (≈ 0.999 µg/mL) | 1.36 µM (≈ 0.499 µg/mL) | 2.72 µM (≈ 0.999 µg/mL) | 2.72 µM (≈ 0.999 µg/mL) | 2.72 µM (≈ 0.999 µg/mL) | 1.36 µM (≈ 0.499 µg/mL) | 2.72 µM (≈ 0.999 µg/mL) | 1.36 µM (≈ 0.499 µg/mL) | 2.72 µM (≈ 0.999 µg/mL) | 5.45 µM (≈ 2 µg/mL) | 2.72 µM (≈ 0.999 µg/mL) | 5.45 µM (≈ 2 µg/mL) | 2.72 µM (≈ 0.999 µg/mL) | 2.72 µM (≈ 0.999 µg/mL) | 2.72 µM (≈ 0.999 µg/mL)
10 | O=C(Nc1ccc(Cl)c(F)c1)Nc1ccc(Cl)c(C(F)(F)F)c1 | 2.72 µM (≈ 0.999 µg/mL) | 2.72 µM (≈ 0.999 µg/mL) | 1.36 µM (≈ 0.499 µg/mL) | 2.72 µM (≈ 0.999 µg/mL) | 2.72 µM (≈ 0.999 µg/mL) | 2.72 µM (≈ 0.999 µg/mL) | 1.36 µM (≈ 0.499 µg/mL) | 1.36 µM (≈ 0.499 µg/mL) | 2.72 µM (≈ 0.999 µg/mL) | 2.72 µM (≈ 0.999 µg/mL) | 2.72 µM (≈ 0.999 µg/mL) | 10.9 µM (≈ 4 µg/mL) | 21.8 µM (≈ 8 µg/mL) | 10.9 µM (≈ 4 µg/mL) | 10.9 µM (≈ 4 µg/mL) | 1.36 µM (≈ 0.499 µg/mL) | 5.45 µM (≈ 2 µg/mL) | 2.72 µM (≈ 0.999 µg/mL)
